The text below walks through data of patent US10980814B2, “Fused pentacyclic imidazole derivatives as modulators of TNF activity” (UCB Biopharma SRL, priority 2017, dated 2021).

This test concerns the target T1, human hERG channels (Kv11.1) (Homo sapiens, UniProt Q12809).
T1 construct: host or cells: CHO cells (hERG-Duo cells)
The experiment in a line: hERG assay, automated planar patch-clamp in CHO cells stably expressing human hERG channels. Particulars: peak tail-current, QPatch HTX whole-cell voltage-clamp, room temperature, 0.12-30 μM. It is filed as cell-based. The procedure: Pharmacological activity of the compounds at cardiac hERG channels (Kv11.1) was assessed functionally using an automated planar patch-clamp electrophysiology station. CHO cells stably expressing human hERG channels were grown under the permanent pressure of the appropriate selection antibiotics according to the specifications of the manufacturer (hERG-Duo cells, B'SYS GmbH, Switzerland). Cells were harvested below 80% confluence, suspended in serum-free medium and dispensed automatically to multi-well recording plates for whole-cell voltage-clamp recordings on a QPatch HTX workstation (Sophion, BiolinScientific AB, Denmark). The composition of the extracellular recording buffer was (in mM): NaCl, 150; KCl, 4; CaCl2), 2; MgCl2, 1; HEPES, 10; and glucose, 10; adjusted to pH 7.4 with NaOH. The intracellular buffer contained (in mM): KCl, 120; CaCl2), 5; MgCl2, 2; EGTA, 10; HEPES, 10; and Mg-ATP, 4; adjusted to pH 7.2 with KOH. The voltage protocol used to activate hERG currents consisted in a first depolarizing step from a −80 mV holding potential to +20 mV for 5 s followed by a second repolarizing step to −50 mV. Cycle time was 15 s, recordings were performed at room temperature and drug effects were evaluated on the peak tail-current elicited by the second repolarizing step. For pharmacology, stock solutions of the test articles at 10 mM were prepared in DMSO. A 6-point concentration-range was prepared in polypropylene micro-titer plates by first serially diluting the initial 10 mM stock 1:3 in DMSO and then diluting each of the 6 intermediate working solutions 1:333 in extracellular recording medium containing 0.06% Pluronic F-68 (Gibco/Thermofischer, France). Final concentrations of test articles (i.e. 0.12 μM, 0.37 μM, 1.1 μM, 3.3 μM, 10 μM and 30 μM) were applied cumulatively to the cells in ascending order. A positive control (terfenadine, 10 μM) was added at the end of each recording sequence. Time-course of hERG tail current amplitude was analyzed off-line following optional leak current substraction and compensation of current rundown as needed. Half-maximal inhibitory concentrations (IC50) were obtained by fitting current amplitudes measured at the end of each exposure period and normalized with respect to pre-drug baseline with a four parameter sigmoidal equation.
(In general: The hERG channel carries a current that helps repolarise heart muscle cells.)

SMILES strings stand for the structures. Bounds are passed on as bounds.

T1 sequence (Q12809 whole entry): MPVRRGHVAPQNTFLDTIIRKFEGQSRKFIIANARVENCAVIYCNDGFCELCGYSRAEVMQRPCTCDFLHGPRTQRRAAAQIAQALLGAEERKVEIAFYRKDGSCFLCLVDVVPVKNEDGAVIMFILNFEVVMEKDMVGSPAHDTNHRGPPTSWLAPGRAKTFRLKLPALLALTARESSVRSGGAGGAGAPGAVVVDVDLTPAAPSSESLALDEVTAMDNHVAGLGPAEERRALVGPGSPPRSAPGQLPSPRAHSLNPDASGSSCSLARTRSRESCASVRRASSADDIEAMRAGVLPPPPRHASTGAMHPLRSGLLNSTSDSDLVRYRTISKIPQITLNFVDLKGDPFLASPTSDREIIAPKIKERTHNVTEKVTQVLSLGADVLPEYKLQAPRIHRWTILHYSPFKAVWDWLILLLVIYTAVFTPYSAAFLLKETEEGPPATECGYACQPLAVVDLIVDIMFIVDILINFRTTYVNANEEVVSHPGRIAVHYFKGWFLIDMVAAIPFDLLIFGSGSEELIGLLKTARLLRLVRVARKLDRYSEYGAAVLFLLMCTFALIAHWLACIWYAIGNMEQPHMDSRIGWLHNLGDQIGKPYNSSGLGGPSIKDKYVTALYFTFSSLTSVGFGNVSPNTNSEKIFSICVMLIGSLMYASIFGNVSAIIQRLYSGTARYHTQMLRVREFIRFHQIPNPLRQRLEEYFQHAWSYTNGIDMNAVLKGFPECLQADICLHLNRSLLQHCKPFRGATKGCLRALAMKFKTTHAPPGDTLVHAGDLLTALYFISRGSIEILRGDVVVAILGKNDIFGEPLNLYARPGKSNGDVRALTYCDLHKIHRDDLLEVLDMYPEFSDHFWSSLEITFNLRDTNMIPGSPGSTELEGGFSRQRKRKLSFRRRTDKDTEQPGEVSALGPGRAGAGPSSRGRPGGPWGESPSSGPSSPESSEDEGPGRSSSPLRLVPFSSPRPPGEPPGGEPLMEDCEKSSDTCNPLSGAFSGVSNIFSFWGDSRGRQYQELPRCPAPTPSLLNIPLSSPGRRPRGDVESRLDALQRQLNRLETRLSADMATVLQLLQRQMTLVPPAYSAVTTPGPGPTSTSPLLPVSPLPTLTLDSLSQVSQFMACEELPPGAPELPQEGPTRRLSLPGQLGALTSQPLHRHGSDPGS

Take `C[C@@H]1CC[C@@]1(N)c1ncc(-c2ccc3nc4n(c3c2)[C@@H]2C[C@H]4NC(=O)c3cccc(OC(F)F)c32)cc1F` (single isomer, unassigned) [Example 5, (7R,14R)-11-{6-[(1 S,2R)-1-Amino-2-methylcyclobutyl]-5-fluoropyridin-3-yl}-1-(difluoromethoxy)-6,7-dihydro-7,14-methanobenzimidazo[1,2-b][2,5]benzodiazocin-5(14M-one or (7R,14R)-11-{6-[(1R,2S)-1-Amino-2-methylcyclobutyl]-5-fluoropyridin-3-yl}-1-(difluoromethoxy)-6,7-dihydro-7,14-methanobenzimidazo[1,2-b][2,5]-benzodiazocin-5(14H)-one]: the IC50 (as a rule, the concentration needed to halve the response being measured) was above 30 µM.

Compound `CN1C(=O)c2cccc(OC(F)F)c2[C@H]2C[C@@H]1c1nc3ccc(-c4cnc([C@]5(N)C[C@](O)(C(F)(F)F)C5)c(F)c4)cc3n12` (single isomer, unassigned) [Example 11] showed an IC50 above 30 µM. `CN1C(=O)c2cccc(OC(F)F)c2[C@H]2C[C@@H]1c1nc3ccc(-c4cnc([C@]5(N)C[C@](O)(C(F)(F)F)C5)nc4)cc3n12` (single isomer, unassigned) [Example 12] came in with an IC50 above 30 µM. On to `C[C@]1(C#N)C[C@](N)(c2ncc(-c3ccc4nc5n(c4c3)[C@@H]3C[C@H]5NC(=O)c4cccc(OC(F)F)c43)cn2)C1` [Example 2, cis-3-Amino-3-{5-[(7R,14R)-1-(difluoromethoxy)-5-oxo-5,6,7,14-tetrahydro-7,14-methanobenzimidazo[1,2-b][2,5]benzodiazocin-11-yl]pyrimidin-2-yl}-1-methyl-cyclobutanecarbonitrile], for which the IC50 is above 30 µM. To `C[C@]1(C#N)C[C@](N)(c2ncc(-c3ccc4nc5n(c4c3)[C@@H]3C[C@H]5NC(=O)c4cccc(OC(F)F)c43)cc2F)C1` [Example 4, cis-3-Amino-3-{5-[(7R,14R)-1-(difluoromethoxy)-5-oxo-5,6,7,14-tetrahydro-7,14-methanobenzimidazo[1,2-b][2,5]benzodiazocin-11-yl]-3-fluoropyridin-2-yl}-1-methyl-cyclobutanecarbonitrile] belongs above 30 µM. To `CN1C(=O)c2cccc(OC(F)F)c2[C@H]2C[C@@H]1c1nc3ccc(-c4cnc(C5(N)CCC5)nc4)cc3n12` [Example 6, (7R,14R)-11-[2-(1-Aminocyclobutyl)pyrimidin-5-yl]-1-(difluoromethoxy)-6-methyl-6,7-dihydro-7,14-methanobenzimidazo[1,2-b][2,5]benzodiazocin-5(14H)-one] belongs around 8 µM; to `C[C@]1(O)C[C@](N)(c2ncc(-c3ccc4nc5n(c4c3)[C@@H]3C[C@H]5NC(=O)c4cccc(OC(F)F)c43)cc2F)C1` [Example 8, (7R,14R)-11-[6-(cis-1-Amino-3-hydroxy-3-methylcyclobutyl)-5-fluoropyridin-3-yl]-1-(difluoromethoxy)-6,7-dihydro-7,14-methanobenzimidazo[1,2-b][2,5]benzodiazocin-5(14H)-one], above 30 µM; to `C[C@]1(CO)C[C@](N)(c2ncc(-c3ccc4nc5n(c4c3)[C@@H]3C[C@H]5NC(=O)c4cccc(OC(F)F)c43)cc2F)C1` [Example 10, (7R,14R)-11-{6-[cis-1-Amino-3-(hydroxymethyl)-3-methylcyclobutyl]-5-fluoropyridin-3-yl}-1-(difluoromethoxy)-6,7-dihydro-7,14-methanobenzimidazo[1,2-b][2,5]-benzodiazocin-5(14H)-one], above 30 µM.

`N[C@]1(c2ncc(-c3ccc4nc5n(c4c3)[C@@H]3C[C@H]5NC(=O)c4cccc(OC(F)F)c43)cc2F)C[C@@](O)(C(F)(F)F)C1` [Example 13, (7R,14R)-11-{6-[cis-1-Amino-3-hydroxy-3-(trifluoromethyl)cyclobutyl]-5-fluoropyridin-3-yl}-1-(difluoromethoxy)-6,7-dihydro-7,14-methanobenzimidazo[1,2-b][2,5]-benzodiazocin-5(14H)-one]: the IC50 was above 30 µM. As for `[2H]C([2H])(O)[C@]1(C)C[C@@](N)(c2ncc(-c3ccc4nc5n(c4c3)[C@@H]3C[C@H]5NC(=O)c4cccc(OC(F)F)c43)cn2)C1` [Example 14, (7R,14R)-11-(2-{cis-1-Amino-3-[hydroxy(dideutero)methyl]-3-methylcyclobutyl}-pyrimidin-5-yl)-1-(difluoromethoxy)-6,7-dihydro-7,14-methanobenzimidazo[1,2-b][2,5]-benzodiazocin-5(14H)-one], the IC50 was above 30 µM. As to `C[C@]1(CO)C[C@](N)(c2ncc(-c3ccc4nc5n(c4c3)[C@@H]3C[C@H]5NC(=O)c4cccc(OC(F)F)c43)cn2)C1` [Example 15, (7R,14R)-11-{2-[cis-1-Amino-3-(hydroxymethyl)-3-methylcyclobutyl]pyrimidin-5-yl}-1-(difluoromethoxy)-6,7-dihydro-7,14-methanobenzimidazo[1,2-b][2,5]benzodiazocin-5(14H)-one], the IC50 was above 30 µM.

Turning to `[2H]C([2H])(O)[C@]1(C)C[C@@](N)(c2ncc(-c3ccc4nc5n(c4c3)[C@@H]3C[C@H]5NC(=O)c4cccc(OC(F)F)c43)cc2F)C1` [Example 16, (7R,14R)-11-(6-{cis-1-Amino-3-[hydroxy(dideutero)methyl]-3-methylcyclobutyl}-5-fluoropyridin-3-yl)-1-(difluoromethoxy)-6,7-dihydro-7,14-methanobenzimidazo[1,2-b]-[2,5]benzodiazocin-5(14H)-one], the IC50 was above 30 µM.
